For experiment [1], the system named is Saccharomyces cerevisiae strain BY4741. The experiment is described as follows: Halo test of H2O2 tolerance of OSIP-overexpressing yeast. To be noted: 15 μL of 240 mM H2O2, galactose vs glucose agar, 48 h at 30° C.; versus negative controls. Format: cell-based. The method, then:
Resistance of the selected yeast transformants and the two positive control transformants against oxidative stress induced by H2O2 was additionally assayed in a halo test, by spotting 15 μL of 240 mM H2O2 on SC-ura agar, containing either glucose or galactose, and inoculated with 1/200 of overnight yeast culture as described previously (23). After 48 h of incubation at 30° C., diameters of the halos were measured.
The halo-test comprises a predefined but continuous concentration gradient of H2O2, applied to inoculated agar plates. Upon incubation, circles (halos) of growth inhibition are visible. By comparing the diameter of the halos of plates with yeast grown on glucose (not allowing for expression of the OSIP) and galactose (inducing overexpression of the OSIP) the effect of the OSIP on oxidative stress tolerance was quantified.

Experiment [2] relates to peroxide-induced ROS in yeast. The experiment is described as follows: ROS accumulation assay (H2DCFDA) in peroxide-treated yeast with exogenous OSIP. Format: cell-based. The following applies: 500 μM peptide, compared to mock treatment. As to the method:
(§1) ROS, after H2O2 treatment in the absence or presence of 500 μM OSIP, were determined using 2,7-dichlorodihydrofluorescein diacetate (H2DCFDA) staining as described previously (24). Survival of WT yeast in PBS following H2O2 treatment in the absence or presence of 500 μM OSIP was assessed as described (25).
(§2) The effect of OSIP108 on endogenous ROS levels induced by peroxide in yeast were evaluated. Peroxide-induced ROS in yeast in the absence and presence of OSIP108 were measured using 2,7-dichlorodihydrofluorescein diacetate (H2DCFDA) (FIG. 3A). […] Moreover, we found the survival of peroxide-treated yeast cells (5 mM) to increase 27-fold upon incubation with 500 μM OSIP108 (FIG. 3B).

Another experiment has as its system WT yeast. The experiment is described as follows: Survival assay of peroxide-treated WT yeast with exogenous OSIP. Format: cell-based. The following applies: for effect on survival of yeast cells after treatment with peroxide (in words): exogenous addition of the peptides. The method, then: as §1, §2
In experiment [3] the test system is yeast Δccc2 mutant. As to the kind of experiment: Copper-induced growth inhibition of yeast Δccc2 mutant overexpressing the OSIP108 gene. The experiment is classed as cell-based. To be noted: overexpression of the gene encoding OSIP108. An excerpt:
Copper ions are known to induce apoptosis of hepatocytes, one of the underlying mechanisms of copper-induced toxicity in Wilson's Disease (WD). WD is caused by mutations in the ATPase ATP7b.

A further experiment concerns yeast BY4741. As to the kind of experiment: Yeast growth inhibition by apoptosis-inducing compounds (OD600) with or without OSIP108. Format: cell-based, Saccharomyces cerevisiae. The method, then:
Yeast growth was monitored upon treatment with different apoptosis-inducing compounds in the presence (black bars) or absence (white bars) of 200 μM OSIP108. Percentage growth was calculated as the ratio of the OD600 of the treated culture over an unstressed yeast culture after 10 h (A) or 48 h (B) of incubation.
In this respect, in parallel with mitochondrial copper toxicity, the use of the other mitochondrial toxins, in casu valproic acid, tunicamycin, doxycyclin and cisplatin, expand the range of causes of mitochondrial dysfunction and help find a broader basis for compounds rescuing mitochondrial dysfunction. Optical density (OD600) of yeast BY4741 was monitored upon treatment with different apoptosis-inducing compounds in the presence or absence of 200 μM OSIP108. OSIP108 and apoptosis-inducers were added simultaneously to the yeast cells. Percentage growth was calculated as the ratio of the OD600 of the treated culture over an unstressed yeast culture after 10 h or 48 h of incubation. […] Also, OSIP108 but not OSIP(C3A) can rescue copper- and cisplatin-induced growth inhibition of yeast

Experiment [4] concerns human hepatoma cell line HepG2. The experiment is described as follows: HepG2 cell viability (MTT) in presence of copper or cisplatin. Format: cell-based. As to the method: The mean and SE of three experiments is shown. No: viability of cells without addition of peptide; OSIP: OSIP108 was added simultaneously added to cells together with Cu; OSIP pre, cells were preincubated with OSIP108 for 12 h prior to addition of Cu.
The human hepatoma cell line HepG2 which naturally expresses hATP7B was incubated with 100 μM of peptide OSIP108. The viability of cells was determined after 48 h exposure to toxic copper concentrations of 0.75 mM by MTT assay. The viability was calculated relative to cells that receive no copper (100%).

Experiment [5] deals with CHO cell lines expressing ATP7b mutant H1069Q. The experiment is described as follows: Viability (MTT) of CHO cells expressing ATP7b mutant H1069Q under toxic copper. Format: cell-based. The following applies: 100 μM OSIP108, 0.75 mM copper, 48 h. As to the method:
(§3) No: viability of cells without addition of peptide; OSIP: OSIP108 was added simultaneously added to cells together with Cu; and OSIP pre: cells were preincubated with the peptide for 12 h prior to addition of Cu.
(§4) CHO cell lines expressing either ATP7b or ATP7b mutant H1069Q (a mutation frequently found in patients having Wilson's Disease) were incubated with OSIP108 (100 μM). The viability of cells was determined after 48 h exposure to toxic copper concentrations of 0.75 mM by MTT assay and calculated relative to cells that receive no copper (100%).

The subject of another experiment is Col-0 A. thaliana plants. As to the kind of experiment: Paraquat lesion diameter on A. thaliana leaves infiltrated with OSIP108. The experiment is classed as in vivo, Arabidopsis thaliana. The following applies: three days after paraquat (5 μl, 100 μM); leaf infiltrated with 100 μM OSIP108 24 h before; control 4.45±1.37 mm. As to the method: At least twelve soil grown, 4 week old Col-0 A. thaliana plants, were used in which one leaf of each plant was syringe-infiltrated with 100 μM OSIP108 dissolved in 1% dimethyl sulphoxide (DMSO). At least 12 control plants were mock treated with 1% DMSO only. After 24 h incubation in the growth chamber, the plants were inoculated with a drop of 5 μl paraquat (100 μM). The lesion diameters caused by the paraquat treatment were measured and compared 2 and 3 days after the treatment.

In experiment [6] the test system is yeast Δccc2 mutant. The experiment is described as follows: Exogenous OSIP108 on yeast Δccc2 mutant at lethal copper dose (MTT viability dye halo, ROS). The experiment is classed as cell-based. To be noted: exogenous addition. As to the method: This was tested by spotting 5 μL of 10 mM OSIP108 onto agar plates containing a yeast Δccc2 mutant, 500 μM CuSO4 and a viability dye based on MTT. Plates were incubated for 24 h and placed at 4° C. for 2 days. Blue halos were indicative of surviving yeast cells.

In experiment [7] the test system is CHO cell lines expressing ATP7b. The experiment is described as follows: Viability (MTT) of CHO cells expressing ATP7b under toxic copper. The experiment is classed as cell-based. The following applies: 100 μM OSIP108, 0.75 mM copper, 48 h. As to the method: as §3, §4

The text below walks through data of patent US20130326728A1, “AGENTS FOR INCREASED RESISTANCE AGAINST OXIDATIVE STRESS CONDITIONS” (KATHOLIEKE UNIVERSITEIT LEUVEN, priority 2010, published 2013).

Entries after “also recorded” stand apart in the source; their conditions may differ.

“MIIINNDNYLLLFYNNN (listed as Arabidopsis thaliana) [SIP14—1]”: the “halo test: average difference in halo diameter / tolerance to H2O2” value in experiment [1] is reported as “significant enhanced tolerance”. In addition, in [2], the “peroxide-induced endogenous ROS (DCF fluorescence intensity)” value (shortened to “peroxide-induced endogenous ROS”) is listed as “decrease in the amount of endogenous ROS”. In addition, the “effect on survival of yeast cells after treatment with peroxide (in words)” value (“effect on survival of yeast cells” for short) in the experiment with WT yeast was “less effect than SIP108”.

Consider “MIIIYYCFIIIIN (listed as Arabidopsis thaliana) [SIP14—2]”, for which the “halo test: average difference in halo diameter / tolerance to H2O2” value in [1] is “significant enhanced tolerance”. The “peroxide-induced endogenous ROS” value in [2] is on record as “decrease in the amount of endogenous ROS”. For the same sequence, the “effect on survival of yeast cells” value in the experiment on WT yeast was “less effect than SIP108”.

Regarding “MLCVLQGLRE (listed as Arabidopsis thaliana) [OSIP108]”, in experiment [1], the “halo test: average difference in halo diameter / tolerance to H2O2” value is reported as “significantly lower”. For the same sequence, in the experiment with yeast Δccc2 mutant [3], the “copper-induced growth inhibition of Δccc2 mutant” value is “could alleviate copper-induced growth inhibition”. In the experiment on yeast BY4741, the “rescue of copper- and cisplatin-induced growth inhibition of yeast” value is on record as “can rescue”. Besides, the “yeast growth in presence of cisplatin” value in the experiment on yeast BY4741 (200 uM OSIP108, 250 and 125 μM cisplatin, compared to control treatment) is on record as “significant increase in growth”. In addition, the “rescue of yeast growth inhibition by other apoptosis-inducers” value in the experiment with yeast BY4741 (200 μM OSIP108, apoptosis-inducers other than cisplatin) was “fails to rescue”. Moreover, in [4] (FIG. 5, 100 μM OSIP108, 0.75 mM copper, 48 h, MTT), the “copper resistance of HepG2 (viability)” value is given as “significantly enhances copper resistance”. Moreover, the “survival of HepG2 cells in the presence of copper or cisplatin” value in experiment [4] (pre-incubation with peptide) is “increased survival”. Besides, the “copper resistance / viability of CHO cells expressing ATP7b mutant H1069Q” value in [5] is recorded as “enhanced the copper resistance; also recorded: significantly enhances copper resistance”. Besides, the average lesion diameter in the experiment on Col-0 A. thaliana plants was determined as 2.18±1.60 mm. For the same sequence, the “copper-induced accumulation of reactive oxygen species (ROS) in Δccc2 mutant” value in the experiment on yeast Δccc2 mutant [6] was “reduced”. Besides, the “viability of the Δccc2 yeast mutant” value in the experiment on yeast Δccc2 mutant [6] (in presence of copper) was “increased viability”. Further, in the experiment on yeast Δccc2 mutant [6] (5 μL of 10 mM OSIP108 spotted, 500 μM CuSO4), the “survival of Δccc2 yeast mutant at lethal copper dose” value is “induces survival”. Moreover, in experiment [2], the “peroxide-induced endogenous ROS” value was “significantly lower”. For the same sequence, the “copper resistance / viability of CHO cells expressing ATP7b” value in [7] was “enhanced the copper resistance; also recorded: significantly enhances copper resistance”. Further, the “increase of survival of peroxide-treated yeast cells” value in the experiment with WT yeast (5 mM peroxide, 500 μM OSIP108) is reported as 27 fold.

Turning to “MLMYRMRSGAN (listed as Arabidopsis thaliana) [SIP11]”, the “halo test: average difference in halo diameter / tolerance to H2O2” value in experiment [1] is on record as “significant enhanced tolerance”. Further, the “peroxide-induced endogenous ROS” value in [2] is “decrease in the amount of endogenous ROS”. In the experiment on WT yeast, the “effect on survival of yeast cells” value is reported as “less effect than SIP108”.
